Where two headings read alike, the source gives them in different places.
Columns and labels:
moderate and severe COPD = conditions: phase II clinical study; cited from earlier work
[1] = system: tracheal smooth muscle of guinea pig; test: Relaxation of CCh-induced constriction of isolated guinea pig tracheal smooth muscle (Experimental Example 1); conditions: in vitro; for Onset time (min) ± SD / Time for eliminating inhibition effect (min): CCh 3 × 10^−6 mol/L; for EC50: constriction induced by CCh 3 × 10^−6 mol/L, read-out: EC50 (μM) ± SD
[2] = target: T1, human recombinant β2 adrenoceptor (Homo sapiens, UniProt P07550); test: cell-based; assay type: cell-based; conditions: for EC50: cAMP accumulation
T1 construct: expressed in transfected cells

[3] = target: human recombinant M3 receptor (Homo sapiens, UniProt P20309); test: biochemical; assay type: binding; conditions: for M1/M3 / M2/M3: Mx/My = Ki(y)/Ki(x)
[4] = target: T2, human recombinant β1 adrenoceptor (Homo sapiens, UniProt P08588); test: cAMP accumulation, human recombinant β1 adrenoceptor; assay type: cell-based
T2 construct: expressed in transfected cells
Description: In order to measure the activity and selectivity of agonists to human β1 and β2 adrenoceptors, the cAMP accumulation of expressed receptors in each recombinant cell line was measured. cAMP was determined by homology radioimmunoassay, that is, cells were washed with PSB buffer solution and suspended in the buffer solution at room temperature to grow to 30000-40000 cells per well. The test compound was diluted with PSB buffer solution containing 0.1% BSA and tested at 11 gradient concentrations ranging from 100 uM to 0.1 pM. For the analysis of β1-adrenoceptor, 10 nM of ICI118551 was added to block the expression of β2-adrenoceptor in HEK293 cells. After the compound was added to the suspended cells, the scintillation plate was incubated at 37° C. for 10 minutes, the reaction was terminated with ice-cold detection buffer solution, and its radioactivity was measured after storage at 4° C. overnight.
The agonistic activity (pEC50 value) was analyzed by regression using S-type dose response model of software package (GraphPad Software, San Diego, Calif.). Selectivity was calculated from the ratio of measured cAMP of β1 and β2 adrenoceptors, which was expressed as sel. β1/β2=(EC50 (β1)/EC50 (β2)).

[5] = target: human recombinant M1 receptor (Homo sapiens, UniProt P11229); test: biochemical; assay type: binding; conditions: for M1/M2: Mx/My = Ki(y)/Ki(x)
[6] = target: human recombinant M2 receptor (Homo sapiens, UniProt P08172); test: biochemical; assay type: binding
[7] = 3H-QNB […], 25° C., 5 h, read-out: hM3Ki
[8] = cAMP accumulation, 10 nM ICI118551 added, HEK293 cells, read-out: EC50 (β1)
[9] = 3H-QNB […], 25° C., 5 h, read-out: hM1Ki
[10] = 3H-QNB 1.81 nmol/L, 25° C., 5 h, read-out: hM2Ki

Sequence of human recombinant M1 receptor (P11229 whole entry): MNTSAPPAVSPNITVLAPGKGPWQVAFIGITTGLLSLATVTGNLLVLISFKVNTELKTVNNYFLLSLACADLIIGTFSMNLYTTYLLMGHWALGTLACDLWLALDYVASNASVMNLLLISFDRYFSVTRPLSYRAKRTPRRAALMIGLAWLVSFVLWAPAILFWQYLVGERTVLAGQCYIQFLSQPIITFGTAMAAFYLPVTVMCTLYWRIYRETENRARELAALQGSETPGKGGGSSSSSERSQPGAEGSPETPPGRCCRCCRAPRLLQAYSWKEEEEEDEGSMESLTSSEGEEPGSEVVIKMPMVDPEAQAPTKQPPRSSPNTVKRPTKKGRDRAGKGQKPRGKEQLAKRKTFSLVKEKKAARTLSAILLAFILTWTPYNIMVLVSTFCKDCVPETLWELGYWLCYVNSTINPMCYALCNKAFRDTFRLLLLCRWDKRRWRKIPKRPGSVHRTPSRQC
Sequence of human recombinant M2 receptor (P08172 whole entry): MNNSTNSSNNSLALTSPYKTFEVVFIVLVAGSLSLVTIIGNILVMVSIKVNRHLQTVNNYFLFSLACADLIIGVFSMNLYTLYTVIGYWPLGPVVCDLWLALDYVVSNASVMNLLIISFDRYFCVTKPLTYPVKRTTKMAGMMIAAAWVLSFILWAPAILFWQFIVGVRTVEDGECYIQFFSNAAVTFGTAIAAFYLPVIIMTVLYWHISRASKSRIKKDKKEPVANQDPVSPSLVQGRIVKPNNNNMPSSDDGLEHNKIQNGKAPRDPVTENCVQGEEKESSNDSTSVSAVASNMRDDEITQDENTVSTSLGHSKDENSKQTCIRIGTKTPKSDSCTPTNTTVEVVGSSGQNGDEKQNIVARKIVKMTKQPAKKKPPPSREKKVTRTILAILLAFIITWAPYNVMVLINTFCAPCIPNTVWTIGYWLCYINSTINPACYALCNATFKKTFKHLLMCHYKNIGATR
T2 sequence (P08588 whole entry): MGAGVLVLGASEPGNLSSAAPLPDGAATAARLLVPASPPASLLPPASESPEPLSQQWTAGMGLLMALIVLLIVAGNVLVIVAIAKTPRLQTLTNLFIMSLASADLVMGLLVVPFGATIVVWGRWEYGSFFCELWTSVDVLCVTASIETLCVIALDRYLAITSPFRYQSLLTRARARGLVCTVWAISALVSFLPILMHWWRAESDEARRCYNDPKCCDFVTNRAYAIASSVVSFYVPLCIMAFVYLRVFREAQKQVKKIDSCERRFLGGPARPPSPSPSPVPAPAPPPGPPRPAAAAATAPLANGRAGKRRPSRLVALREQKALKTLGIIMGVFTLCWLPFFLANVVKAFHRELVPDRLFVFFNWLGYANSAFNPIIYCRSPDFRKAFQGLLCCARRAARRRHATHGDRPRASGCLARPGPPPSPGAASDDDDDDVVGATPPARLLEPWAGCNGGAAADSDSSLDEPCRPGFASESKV
Sequence of human recombinant M3 receptor (P20309 whole entry): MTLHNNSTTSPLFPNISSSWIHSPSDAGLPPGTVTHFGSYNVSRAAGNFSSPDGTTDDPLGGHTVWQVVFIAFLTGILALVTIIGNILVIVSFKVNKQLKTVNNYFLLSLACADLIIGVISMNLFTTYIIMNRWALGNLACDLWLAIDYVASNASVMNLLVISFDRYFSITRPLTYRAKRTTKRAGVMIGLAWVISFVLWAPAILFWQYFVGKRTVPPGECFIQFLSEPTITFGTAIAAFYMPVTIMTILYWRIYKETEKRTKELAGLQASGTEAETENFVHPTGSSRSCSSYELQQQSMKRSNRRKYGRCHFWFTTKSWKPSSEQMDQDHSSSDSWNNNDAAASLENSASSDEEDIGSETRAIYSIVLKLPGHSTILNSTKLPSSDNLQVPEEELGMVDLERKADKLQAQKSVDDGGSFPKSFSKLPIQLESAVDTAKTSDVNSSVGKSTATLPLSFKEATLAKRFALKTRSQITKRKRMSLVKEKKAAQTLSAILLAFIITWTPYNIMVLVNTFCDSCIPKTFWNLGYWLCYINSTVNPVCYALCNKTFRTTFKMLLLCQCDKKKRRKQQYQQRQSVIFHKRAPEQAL

Molecule	effect on moderate and severe COPD (moderate and severe COPD)	Onset time (min) ± SD [1] [min]	Time for eliminating inhibition effect (min) [1]	EC50 ([1]; Cavia porcellus) [µM]	sel (β1/β2) [2]	EC50 [2] [nM]	Ki [3] [nM]	M1/M3 [3]	M2/M3 [3]	EC50 [4] [nM]	Ki [5] [nM]	M1/M2 [5]	Ki [6] [nM]	EC50 [1] [µM]	Ki [3, 7] [nM]	EC50 [4, 8] [nM]	Ki [5, 9] [nM]	Ki [6, 10] [nM]
COc1cc(NC(=O)CCN2CCC(OC(=O)Nc3ccccc3-c3ccccc3)CC2)c(Cl)cc1CNC[C@H](O)c1ccc(O)c2[nH]c(=O)ccc12 [TD5959]	good effect on moderate and severe COPD																	
OCc1cc([C@@H](O)CNCCCC[N+]23CCC(CC2)[C@@H](OC[C@@](O)(c2ccccc2)C2CCCC2)C3)ccc1O [Compound 3, (R)-(−)-3-[(R)-2-hydroxy-2-cyclopentyl-2-phenyl]ethoxy-1-{4-[(R)-2-(3-hydroxymethyl-4-hydroxy)phenyl-2-hydroxyethylamino]butyl}-1-azabicyclo[2,2,2]octylonium bromide]		5.38 ± 0.68	more than 300 min	0.355 ± 0.1	15.6	10.3 ± 2.4	0.451 ± 0.18	0.5880	0.4808	160 ± 72	0.767 ± 0.16	1.2229	0.938 ± 0.4					
O=CNc1cc([C@@H](O)CNCc2c(Cl)cc(OCCC[N+]34CCC(CC3)[C@@H](OC[C@](O)(c3ccccc3)C3CCCC3)C4)cc2Cl)ccc1O.[Br-] [Compound 59, (R)-(−)-3-[(R)-2-hydroxy-2-cyclopentyl-2-phenyl]ethoxy-1-{3-[(3,5-dichloro-4-(1-{(R)-[2-hydroxy-2-(3-formamido-4-hydroxy)phenyl]ethylamino}methyl)phenoxy)propyl}-1-azabicyclo[2,2,2]octylonium bromide]						0.32 ± 0.12								0.0165 ± 0.0075	0.131 ± 0.022	83 ± 31	0.283 ± 0.018	2 ± 0.89
OCc1cc([C@@H](O)CNCCC[N+]23CCC(CC2)[C@@H](OC[C@@](O)(c2ccccc2)C2CCCC2)C3)ccc1O [Compound 1, (R)-(−)-3-[(R)-2-hydroxy-2-cyclopentyl-2-phenyl]ethoxy-1-{3-[(R)-2-(3-hydroxymethyl-4-hydroxy)phenyl-2-hydroxyethylamino]propyl}-1-azabicyclo[2,2,2]octylonium bromide]		6.82 ± 0.30	more than 300 min	0.767 ± 0.18	15.4	12.8 ± 4.2	0.561 ± 0.22	0.7653	0.5795	197 ± 87	0.733 ± 0.32	1.3206	0.968 ± 0.15					
O=CNc1cc([C@@H](O)CNCc2c(Cl)cc(OCCC[N+]34CCC(CC3)[C@@H](OC[C@](O)(c3ccccc3)C3CCCC3)C4)cc2Cl)ccc1O.[Br-] [Compound 59]		6.53 ± 0.66	more than 300 min		213.4			0.4629	0.0656			7.0601						
(R)-(−)-3-[(R)-2-hydroxy-2-cyclopentyl-2-phenyl]ethoxy-1-{3-[(4-(3-methyl-1-{(R)-[2-hydroxy-2-(6-hydroxy-2H-1,4-benzoxazin-3(4H)-one-8-yl)]ethylamino}ethylidene)phenoxy]propyl}-1-azabicyclo[2,2,2]octylonium bromide [Compound 63]		6.19 ± 0.12	more than 300 min		80.8									0.0155 ± 0.0078	0.0198 ± 0.012	17 ± 5.8	0.0493 ± 0.021	0.323 ± 0.17
